Reference: patent US5919811A, “3-Substituted-indole-2-carboxylic acid derivatives as excitatory amino acid antagonists” (Glaxo Wellcome S.p.A., priority 1995, dated 1999)
pKi: −log10 of the molar value. Counter-ions that a name gives are not always drawn.

What follows are compounds tested against T1, strychnine insensitive glycine binding site located on the NMDA receptor complex (Rattus norvegicus, UniProt P35439) (assay: affinity for strychnine insensitive glycine binding site located on the NMDA receptor complex (procedure of Kishimoto H. et al)). Conditions: not given.
T1 construct: from tissue; host or cells: central nervous system membranes, rat
Protocol: The potent and selective action of the compound of the invention at the strychnine- insensitive glycine binding site present on the NMDA receptor complex may be readily determined using conventional test procedures. Thus the ability to bind at the strychnine insensitive glycine binding site was determined using the procedure of Kishimoto H et al. J Neurochem 1981, 37 1015-1024. The selectivity of the action of compounds of the invention for the strychnine insensitive glycine site was confirmed in studies at other ionotropic known excitatory amino acid receptors.
The affinity of a compound of the invention for strychnine insensitive glycine binding site located on the NMDA receptor complex was determined using the procedure of Kishimoto H. et al J. Neurochem 1981, 37, 1015-1024. The pKi with representative compounds of the invention are given in […]

pKi	SMILES
8.60	NC(=O)NCc1ccc(NC(=O)/C=C/c2c(C(=O)O)[nH]c3cc(Cl)cc(Cl)c23)cc1 [Example 8, (E)4,6-dichloro-3-[2'-(4'-ureidomethylphenylcarbamoyl)ethenyl]-1-H-indole2-carboxylic acid]
7.70	O=C(/C=C/c1c(C(=O)O)[nH]c2cc(Cl)cc(Cl)c12)Nc1ccc(CNC(=O)Nc2ccccc2)cc1 [Example 16, (E)4,6-dichloro-3-[2'-(4'-phenylureidomethylphenylcarbamoyl)ethenyl]-1-H-indole 2-carboxylic acid]
8.74	NC(=O)Nc1ccc(NC(=O)/C=C/c2c(C(=O)O)[nH]c3cc(Cl)cc(Cl)c23)cc1 [Example 21, 4,6-dichloro-3-[(E)-2'-(4'-ureidophenylcarbamoyl)ethenyl]-1-H-indole2-carboxylic acid,]
7.40	O=C(/C=C/c1c(C(=O)O)[nH]c2cc(Cl)cc(Cl)c12)Nc1ccc(NC(=O)Nc2ccccc2)cc1 [Example 24, (E)-4,6-dichloro-3-[2'-(4'-phenyl-ureido-phenylcarbamoyl)ethenyl]-1H-indole-2-carboxylic acid]
8.41	CN(C)C(=O)Nc1ccc(NC(=O)/C=C/c2c(C(=O)O)[nH]c3cc(Cl)cc(Cl)c23)cc1 [Example 27, (E)-4,6-dichloro-3-[2'-(4'-dimethyl-ureido-phenylcarbamoyl)ethenyl]-1H-indole-2-carboxylic acid]
8.61	NC(=O)NCc1cccc(NC(=O)/C=C/c2c(C(=O)O)[nH]c3cc(Cl)cc(Cl)c23)c1 [Example 34]
8.04	O=C(/C=C/c1c(C(=O)O)[nH]c2cc(Cl)cc(Cl)c12)Nc1ccc(CNC(=O)NC2CCOCC2)cc1 [Example 39]
8.50	O=C(/C=C/c1c(C(=O)O)[nH]c2cc(Cl)cc(Cl)c12)Nc1ccc(NC(=O)NC2CC2)cc1 [Example 50, 4,6-dichloro-3-[(E)-2'-(4'-cyclopropylureidophenylcarbamoyl)ethenyl]-1-H-indole-2-carboxylic acid sodium salt]
8.41	O=C(/C=C/c1c(C(=O)O)[nH]c2cc(Cl)cc(Cl)c12)Nc1ccc(NC(=O)Nc2cccnc2)cc1 [Example 51, 4,6-dichloro-3-[(E)-2'-(4'-nicotin-3-ylureidophenylcarbamoyl)ethenyl]-1-H-indole2-carboxylic acid]
8.30	O=C(/C=C/c1c(C(=O)O)[nH]c2cc(Cl)cc(Cl)c12)Nc1ccc(NC(=O)NC2CCOCC2)cc1 [Example 52, 4,6-dichloro-3-[(E)-2'-(4'-(-tetrahydropyran-4"-yl)-ureidophenylcarbamoyl)ethenyl]-1-H-indole-2-carboxylic acid sodium salt]

The compounds below were run on NMDA induced convulsions (assay: inhibition of NMDA induced convulsions in the mouse (procedure of Chiamulera C et al)). Conditions: iv, 0.1 mg/kg I.V., generalized seizures induced by intracerebroventricular injection of NMDA in mice.
Format: in vivo
Protocol: The ability of compounds of the invention to inhibit NMDA induced convulsions in the mouse was determined using the procedure of Chiamulera C et al. Psychpharmacology 1990, 102,-551-552. In this test the ability of the compound to inhibit the generalized seizures induced by an intracerebroventricular injection of NMDA in mice was examined. Thus the % inhibition of the NMDA induced convulsions when a compound of the invention was given the dose of 0.1 mg/kg I.V. was determined and representative results obtained for compounds of the invention are given in the following table.

SMILES	inhibition in vivo at 0.1 mg/kg
NC(=O)NCc1ccc(NC(=O)/C=C/c2c(C(=O)O)[nH]c3cc(Cl)cc(Cl)c23)cc1 [Example 9, (E)4,6-dichloro-3-[2'-(4'-ureidomethylphenylcarbamoyl)ethenyl]-1-H-indole 2-carboxylic acid,sodium salt]	60%
CCNC(=O)NCc1ccc(NC(=O)/C=C/c2c(C(=O)O)[nH]c3cc(Cl)cc(Cl)c23)cc1 [Example 12, (E)4,6-dichloro-3-[2'-(4'-ethylureidomethylphenylcarbamoyl)ethenyl]-1-H-indole 2-carboxylic acid,sodium salt]	50%
CCNC(=S)NCc1ccc(NC(=O)/C=C/c2c(C(=O)O)[nH]c3cc(Cl)cc(Cl)c23)cc1 [Example 14, (E)4,6-dichloro-3-[2'-(4'-ethylthioureidomethylphenylcarbamoyl)ethenyl]-1-H-indole 2-carboxylic acid]	30%
O=C(/C=C/c1c(C(=O)O)[nH]c2cc(Cl)cc(Cl)c12)Nc1ccc(CNC(=O)Nc2ccccc2)cc1 [Example 16, (E)4,6-dichloro-3-[2'-(4'-phenylureidomethylphenylcarbamoyl)ethenyl]-1-H-indole 2-carboxylic acid]	30%
NC(=O)NCCc1ccc(NC(=O)/C=C/c2c(C(=O)O)[nH]c3cc(Cl)cc(Cl)c23)cc1 [Example 19, 4,6-dichloro-3-[(E)-2'-(4'-ureidoethylphenylcarbamoyl)ethenyl]-1-H-indole 2-carboxylic acid,sodium salt]	30%
O=C(/C=C/c1c(C(=O)O)[nH]c2cc(Cl)cc(Cl)c12)Nc1ccc(CNC(=O)NC2CC2)cc1 [Example 31, (E)-4,6-dichloro-3-[-2'-(4'-cyclopropyl-ureido-methyl-phenylcarbamoyl)vinyl]-1H-indole-2-carboxylic acid sodium salt]	40%
COc1ccc(NC(=O)NCc2ccc(NC(=O)/C=C/c3c(C(=O)O)[nH]c4cc(Cl)cc(Cl)c34)cc2)cc1 [Example 37, (E)-4,6-dichloro-3-{2'-[4'-(4"-methoxy-phenyl-ureidomethyl)-phenylcarbamoyl]ethenyl}-1H-indole-2-carboxylic acid]	50%
O=C(/C=C/c1c(C(=O)O)[nH]c2cc(Cl)cc(Cl)c12)Nc1ccc(CNC(=O)NC2CCOCC2)cc1 [Example 40, sodium salt]	40%
CCOC(=O)CNC(=O)NCc1ccc(NC(=O)/C=C/c2c(C(=O)OCC)[nH]c3cc(Cl)cc(Cl)c23)cc1 [Example 43]	40%
O=C(O)CNC(=O)NCc1ccc(NC(=O)/C=C/c2c(C(=O)O)[nH]c3cc(Cl)cc(Cl)c23)cc1 [Example 44, (E)-4,6-dichloro-3-[2'-(4'-carboxymethylureido-methyl-phenylcarbamoyl)ethenyl]-1H-indole-2-carboxylic acid]	40%
